Measurements from US11413278B2, “Compounds and methods for promoting stress resistance” (priority 2015, dated 2022).
Read-outs that look alike come from different tables or passages of the source.

How the values were obtained:
[1] = test system: phosphorylated γH2A.X and TP53BP1; test: DNA damage marker analysis (immuno-staining); conditions: for activity at 10 µM: Homo sapiens, WI-38, 24 h
Summary of the method: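 WI-38 cells were cultured 24 h, then treated with compounds for 24 h; H2O2 (700 μM, 3 h) and doxorubicin (300 nM, 24 h) served as DNA-damage controls. After fixation, cells were immunostained for phospho-γH2A.X (Ser-139) and phospho-TP53BP1 (Ser-1778), counterstained with DAPI, and imaged by automated high-content microscopy.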

LC3A/B puncta = test: Autophagy induction analysis (LC3A/B puncta immuno-staining); format: cell-based, human
Summary of the method: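 WI-38 cells were treated with compounds for 24 hrs, then immunostained for LC3A/B (overnight, 4° C) with DAPI counterstain and imaged by high-content microscopy. Experiment 1 used total puncta intensity. Experiment 2 used LAMP2-colocalized (lysosomal) puncta. Intensity was normalized to nuclei count.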

[2] = test system: human dermal fibroblast (HDF) primary cells; test: H2O2-resistance in primary human dermal fibroblasts; format: cell-based; conditions: for fold induction at 10 µM: Homo sapiens; for Assay 6: H2O2-resistant, at 10 uM, human dermal fibroblast (HDF) primary cells: YES/NO
WI-38 cells [3] = test: Long-term effects on cell viability (5 days, ATP; morphology, PI imaging); format: cell-based; conditions: for viability at 10 µM: Homo sapiens, WI-38, 120 h, read-out: ATP luminescence by day-5 normalized; for O = Potential toxicity / Q = Potential toxicity: human, 5 days;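 as to Luminescence signal for ATP measurement, day-2 Average: compounds at 10 µM with ATP read daily over 5 days of treatment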;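 as to Luminescence signal for ATP measurement, day-3 Average: compounds at 10 µM with ATP read daily over 5 days of treatment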;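 as to Luminescence signal for ATP measurement, day-4 Average: compounds at 10 µM with ATP read daily over 5 days of treatment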;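 as to Luminescence signal for ATP measurement, day-5 Average: compounds at 10 µM with ATP read daily over 5 days of treatment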
[4] = Summary score for characterization of 38 core set hits; conditions: for D = Triple resistant: 2-point score, multiplex resistance (cadmium, MMS, H2O2); for S = Sum of Negative scores: human; for C = H2O2- & Cd-resistant: score, resistance to both H2O2 and cadmium
Summary of the method: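 Composite score across characterizations of hits from an H2O2-resistance screen. Multiplex resistance, FOXO3/NRF2 activation and mTOR down-regulation each earn 2 points. C. elegans lifespan extension over 4–6 trials scores 0–2, and DNA damage or toxicity in human cells subtracts a point.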

WI-38 cells [5] = test: Propidium iodide (PI) cell-death imaging upon H2O2 stress; format: cell-based, human; conditions: for Assay 7: H2O2-resistant, at 10 uM, validated by propidium iodide (PI) cell-death imaging: w/H2O2, 3 hrs/4 hrs/5 hrs, YES/NO; for cytotoxicity at 10 µM: Homo sapiens, WI-38
[6] = read-out: Experiment 1, H2A.X-P DNA damage foci staining (no H2O2 stress treatment), at 10 uM
[7] = read-out: Experiment 2, H2A.X-P DNA damage foci staining (no H2O2 stress treatment), at 10 uM
[8] = read-out: Experiment 2, H2A.X-P DNA damage foci staining (under H2O2 stress treatment), at 10 uM
[9] = read-out: Experiment 2, TP53BP1-P DNA damage foci staining (no H2O2 stress treatment), at 10 uM
[10] = read-out: Experiment 2, TP53BP1-P DNA damage foci staining (under H2O2 stress treatment), at 10 uM
[11] = Experiment 1, HDF cells, read-out: Experiment 1, HDF cells (under H2O2 stress treatment), at 10 uM (fold change)
[12] = Experiment 2, HDF cells, read-out: Experiment 2, HDF cells (under H2O2 stress treatment), at 10 uM (fold change)
[13] = Batch 1, 10 μM, day-1, n = 6, day-0 luminescence = 320956 ± 24708
[14] = Batch 1, 10 μM, day-2, n = 6, day-0 luminescence = 320956 ± 24708
[15] = Batch 1, 10 μM, day-3, n = 6, day-0 luminescence = 320956 ± 24708
[16] = Batch 1, 10 μM, day-4, n = 6, day-0 luminescence = 320956 ± 24708
[17] = Batch 1, 10 μM, day-5, n = 6, day-0 luminescence = 320956 ± 24708
[18] = Batch 1, 10 μM, day-5, DMSO ctrl = 100.0%
[19] = H2O2 3 hrs, 10 uM, n = 6, negative control 5.44% ± 0.79%, read-out: Percentage of propidium iodide-positive dead cells (under H2O2 stress treatment), 3 hrs
[20] = pre-treatment at 10 uM, 3.5 hours of H2O2, DMSO control 27.4% ± 6.5%, */**/*** = reduced by one/two/three standard deviations, read-out: Percentage of propidium iodide-positive dead cells (under H2O2 stress treatment), at 10 uM
[21] = H2O2 4 hrs, 10 uM, n = 6, negative control 16.81% ± 1.42%, read-out: Percentage of propidium iodide-positive dead cells (under H2O2 stress treatment), 4 hrs
[22] = H2O2 5 hrs, 10 uM, n = 6, negative control 22.50% ± 1.53%, read-out: Percentage of propidium iodide-positive dead cells (under H2O2 stress treatment), 5 hrs

Row | SMILES | activity at 10 µM [1, 6] [%] | activity at 10 µM [1, 7] [%] | activity at 10 µM [1, 8] [%] | activity at 10 µM [1, 9] [%] | activity at 10 µM [1, 10] [%] | P = Potential DNA-damaging ([1]; human, 24 h) | R = Potential DNA damaging ([1]; human, 24 h) | H = Potential Autophagy Induction (LC3A/B puncta; score) | H = Potential Autophagy Induction (LC3A/B puncta; summary score) | fold induction at 10 µM [2, 11] | fold induction at 10 µM [2, 12] | Assay 6: H2O2-resistant, at 10 uM, human dermal fibroblast (HDF) primary cells [2] | O = Potential toxicity (WI-38 cells [3]; 10 μM) | Q = Potential toxicity (WI-38 cells [3]; 10 μM) | D = Triple resistant [4] | S = Sum of Negative scores [4] | C = H2O2- & Cd-resistant [4] | Assay 7: H2O2-resistant, at 10 uM, validated by propidium iodide (PI) cell-death imaging (WI-38 cells [5]; 10 uM) | cytotoxicity at 10 µM (WI-38 cells [5]; [19]) [%] | cytotoxicity at 10 µM (WI-38 cells [5]; [20]) [%] | other results
1 | CC(C)(C)c1ccc(OCC(=O)Nc2ccc3c4c(cccc24)C(=O)NC3=O)cc1 [O22] | 101 | 121 | 210 | 154 | 510 | 0 | 0 | 0 | 0 | 15.3 | 49.6 | YES | 0 | 0 | 2 | 0 | 1 | YES | 4.84 | 4.1 | Luminescence signal for ATP measurement, day-1 Average (WI-38 cells [3]; [13]): 435891; Luminescence signal for ATP measurement, day-2 Average (WI-38 cells [3]; [14]): 566145; Luminescence signal for ATP measurement, day-3 Average (WI-38 cells [3]; [15]): 690403; Luminescence signal for ATP measurement, day-4 Average (WI-38 cells [3]; [16]): 840178; Luminescence signal for ATP measurement, day-5 Average (WI-38 cells [3]; [17]): 805461; viability at 10 µM (WI-38 cells [3]; [18]): 78.4%
2 | COc1cccc(/C=C2\CN(C)C/C(=C\c3cccc(OC)c3OC)C2=O)c1OC [O23] | 79.9 | 326 | 33.4 | 42.4 | 13.2 | 0 | 0 | 1 | 1 | 1.68 | 52.4 | YES | 1 | 1 | 0 | 1 | 0 | YES | 5.65 | 10.2 | Assay 15: Potential autophagy induction by LC3A/B puncta assays (LC3A/B puncta; 10 uM & 20 uM, YES/NO): YES; Luminescence signal for ATP measurement, day-1 Average (WI-38 cells [3]; [13]): 329880; Luminescence signal for ATP measurement, day-2 Average (WI-38 cells [3]; [14]): 149226; Luminescence signal for ATP measurement, day-3 Average (WI-38 cells [3]; [15]): 52831; Luminescence signal for ATP measurement, day-4 Average (WI-38 cells [3]; [16]): 53125; Luminescence signal for ATP measurement, day-5 Average (WI-38 cells [3]; [17]): 52771; viability at 10 µM (WI-38 cells [3]; [18]): 5.1%; cytotoxicity at 10 µM (WI-38 cells [5]; [21]): 4.76%; cytotoxicity at 10 µM (WI-38 cells [5]; [22]): 8%
3 | Oc1ccccc1-c1noc(-c2ccccc2O)n1 [O27] | 122 | 338 | 26.1 | 241 | 379 | – | – | 0 | 0 | – | – | YES | 0 | 1 | 0 | 2 | 1 | YES | 0.55 | 0.5 | R = Potential DNA damaging ([1]; negative point, cultured human cells): 1; P = Potential DNA-damaging ([1]; summary score): 1; Luminescence signal for ATP measurement, day-1 Average (WI-38 cells [3]): 431303; Luminescence signal for ATP measurement, day-2 Average (WI-38 cells [3]): 437195; Luminescence signal for ATP measurement, day-3 Average (WI-38 cells [3]): 517210; Luminescence signal for ATP measurement, day-4 Average (WI-38 cells [3]): 634360; Luminescence signal for ATP measurement, day-5 Average (WI-38 cells [3]): 587798; viability at 10 µM (WI-38 cells [3]): 57.2%; cytotoxicity at 10 µM (WI-38 cells [5]; [21]): 0.82%; cytotoxicity at 10 µM (WI-38 cells [5]; [22]): 1.07%
